The structures appear in SMILES notation. pEC50, pIC50: −log10 of the molar value. In brackets after ≈: the same amount, converted by molar mass. Like-named read-outs stand apart in the source and are kept apart here.

Data set [1] deals with T1, NET (Homo sapiens, UniProt P23975).
T1 construct: Eurofins DiscoverX Corporation 87-1003DR; host or cells: unnamed cell lines
Nature of the data set: Transporter NET Blocker. To be noted: for Emax: Transporter NET Blocker, read-out: Max response. It is filed as cell-based. The method, then: After cell plating and incubation, media was removed an 25 μL of 1× compound in 1×HBSS/0.1% BSA was added. Compounds were incubated with cells for 30 min at 37° C. After compound incubation, 25 μL of 1× dye loading buffer (1× dye, 1×HBSS/20 mM HEPES) was added to the wells. Cells were incubated for 30-60 min at 37° C. After incubation, microplates were transferred to a PerkinElmer Envision™ instrument for fluorescent signal detection. […] For blocker mode assays, percentage of inhibition was calculated using the following formula: […]

Data set [2] deals with NMDAR (1A/2B) (Homo sapiens, UniProt Q05586+Q13224). Nature of the data set: Ion Channel NMDAR (1A/2B) Opener. Conditions: for Emax: Ion Channel NMDAR (1A/2B) Opener, read-out: Max response. Type of data set: cell-based.
The target of data set [3] is T2, MAOA (Homo sapiens, UniProt P21397).
T2 construct: purchased Sigma
T2 sequence (P21397 1-527): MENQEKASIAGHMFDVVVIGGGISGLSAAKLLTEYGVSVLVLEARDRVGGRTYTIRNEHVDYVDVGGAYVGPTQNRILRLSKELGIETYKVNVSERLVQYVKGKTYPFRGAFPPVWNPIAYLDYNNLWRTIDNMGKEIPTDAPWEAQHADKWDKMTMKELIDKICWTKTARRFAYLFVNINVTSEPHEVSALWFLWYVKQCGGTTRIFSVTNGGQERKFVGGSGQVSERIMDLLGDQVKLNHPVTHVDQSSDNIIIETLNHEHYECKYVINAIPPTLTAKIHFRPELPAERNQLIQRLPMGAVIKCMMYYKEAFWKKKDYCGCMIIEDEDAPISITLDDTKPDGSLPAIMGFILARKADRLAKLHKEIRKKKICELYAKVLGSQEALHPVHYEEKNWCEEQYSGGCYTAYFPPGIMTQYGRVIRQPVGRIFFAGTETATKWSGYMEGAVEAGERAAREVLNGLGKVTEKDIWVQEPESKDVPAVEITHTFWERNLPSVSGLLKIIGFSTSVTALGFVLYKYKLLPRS
Nature of the data set: Enzymatic MAOA Inhibitor. It is filed as biochemical. Conditions: for Emax: read-out: Max response. The method, then: Enzyme preparations were sourced from various vendors-AChE (R&D Systems), COX1 and COX2 (BPS Bioscience), MAOA (Sigma), PDE3A and PDE4D2 (Signal Chem). AChE: enzyme and test compound were pre-incubated for 15 min at RT before substrate addition. Acetylthiocholine and DTNB were added and incubated at RT for 30 min. Signal was detected by measuring absorbance at 405 nm. COX1 and COX2: enzyme stocks were diluted in assay buffer (40 mM Tris-HCl, 1×PBS, 0.5 mM Phenol, 0.01% Tween 20 and 10 nM Hematin) and allowed to equilibrate with compounds at RT for 30 min (binding incubation). Arachidonic acid (1.7 μM) and Ampliflu Red (2.5 μM) were prepared and dispended into a reaction plate. Plates were read immediately on a fluorimeter with the emission detection at 590 nm and excitation wavelength 544 nm. MAOA: enzyme and test compound were pre-incubated for 15 min at 37° C. before substrate addition. The reaction was initiated by addition of kynuramine and incubated at 37° C. for 30 min. The reaction was terminated by addition of NaOH. The amount of 4-hydroquinoline formed was determined through spectrofluorometric readout with the emission detection at 380 nm and excitation wavelength 310 nm. PDE3A and PDE4D2: enzyme and test compound were pre-incubated for 15 min at RT before substrate addition. cAMP substrate (at a concentration equal to EC80) was added and incubated at RT for 30 min. Enzyme reaction was terminated by addition of 9 mM IBMX. Signal was detected using the HitHunter® cAMP detection kit. Microplates were transferred to a PerkinElmer Envision™ instrument and read out as described for each assay. […] For enzyme activity assays, percentage inhibition was calculated using the following equation: […]

Data set [4] in a line: Aqueous solubility. Type of data set: physicochemical. The text has this:
In vitro ADME profiling of compounds was done by Eurofins Panlabs Inc (St Charles, MO, USA) using their ADME-Tox service (Cat Ref P375, Tier 1 ADME Panel). […] (28). The atom-based log P calculation method, called OsirisP, uses as an increment system and adds contributions of every atom based on its atom type. The prediction engine distinguishes a total of 368 atom types and was optimized using a training set of more than 5000 molecules with experimentally determined log P values. The free prediction engine has proven to outperform many alternative calculation methods (29).
SGF, SIF and PBS buffers were prepared as follows: 34.2 mM NaCl, 84.7 mM HCl, 3.2 g/L pepsin (pH 2) for SGF, 50 mM KH2PO4, 38 mM NaOH, 10 g/L pancreatin (pH 7.5) for SIF and 137 mM NaCl, 2.7 mM KCl, 8.1 mM Na2HPO4 and 1.5 mM KH2PO4 (pH 7.4) for PBS. Test compounds were prepared at 200 μM concentrations in the corresponding buffer from a 10 mM stock solution (final solvent concentration of 2% DMSO). Buffer samples were mixed thoroughly followed by a 24 h incubation at room temperature. Samples were centrifuged and the supernatant was used for HPLC analysis. A calibration standard of the test compound was prepared at 200 μM in methanol/water (3:2 v/v) from the stock solution on the day of the analysis. Metoprolol, rifampicin, ketoconazole, phenytoin, haloperidol, simvastatin, diethylstilbestrol and tamoxifen were included in each assay. Aqueous solubility (μM) was determined by comparing peak areas.

For data set [5], the target named is HTR2B (Homo sapiens, UniProt P41595). As to the kind of experiment: Calcium Flux HTR2B Agonist. Conditions: for Emax: read-out: Max response. (In general: Calcium assays in cells follow changes in intracellular calcium, usually with a dye or a luminescent sensor.)
Experimental: In vitro pharmacological profiling of compounds was done against 78 functional assays for 47 common off-targets (30) by Eurofins DiscoverX Corporation (Fremont, CA, USA) using their SAFETYscan E/IC50 ELECT service (Cat Ref 87-1003DR, Safety47 Panel Dose Response). […] Compounds were tested in a range of 10 concentrations, following a 3-fold serial dilution, starting from 10 μM. The assays were performed utilizing the PathHunter enzyme fragment complementation (EFC) technology, FLIPR®-based cellular screening assays, and KINOMEscan kinase binding assays.
Prior to testing, cells (10,000 cells/well) were expanded from freezer stocks and seeded into a total volume of 50 μL into black walled, clear-bottom, Poly-D-lysine coated 384-well microplates and incubated at 37° C. […] Assays were performed in 1× dye loading buffer consisting of 1× Dye (DiscoverX, Calcium No Wash^PLUS kit, Catalog No. 90-0091), 1× Additive A and 2.5 mM Probenecid in HBSS/20 mM HEPES. Probenecid was prepared fresh. Prior to testing, media was aspirated from cells and replaced with 25 μL dye loading buffer. Cells were incubated for 45 min at 37° C. and then 20 min at RT. For agonist determination, 25 μL of 2× compound in HBSS/20 mM HEPES was added using a FLIPR Tetra (MDS). For antagonist determination, cells were pre-incubated with sample followed by agonist challenge at the EC80 concentration. 25 μL of 2× sample was added and cells were incubated for 30 min at RT in the dark to equilibrate plate temperature. After incubation, antagonist determination was initiated by addition of 25 μL of 1× compound with 3×EC80 agonist using FLIPR. For both agonist and antagonist formats, activity was measure on a FLIPR Tetra (MDS). Calcium mobilization was monitored for 2 min with a 5 sec baseline read.
FLIPR read—Area under the curve, was calculated for the entire 2 min read. Compound activity was analysed using CBIS data analysis suite (ChemInnovation, CA).
Data set [6] concerns the target ADRB2 (Homo sapiens, UniProt P07550). Nature of the data set: cAMP ADRB2 Antagonist. Type of data set: cell-based. Conditions: for Emax: read-out: Max response. The method, then: cAMP Hunter cell lines were expanded from freezer stocks. […] For Gi agonist determination, cells were incubated with sample in the presence of EC80 forskolin to induce response. For both conditions, media was aspirated from cells and replaced with 15 μL 2:1 HBSS/10 mM HEPES:cAMP XS+ Ab reagent. […] 5 μL of 4× sample was added to cells and incubated at 37° C. or room temperature (RT) for 30 or 60 min. Final assay vehicle concentration was 1%. […] Media was aspirated from cells and replaced with 10 μL 1:1 HBSS/HEPES:cAMP XS+ Ab reagent. […] For Gi coupled GPCRs, EC80 forskolin was included. […] Compound activity was analyzed using CBIS data analysis suite (ChemInnovation, CA).

[7] abbreviates: aqueous buffer, kinetic from dmso stock, PBS pH 7.4, tested at 200 μM, 24 h room temperature, read-out: aqueous solubility PBS (pH 7.4).
Where [8] appears, read: fassgf or other biorelevant, kinetic from dmso stock, simulated intestinal fluid pH 7.5, tested at 200 μM, read-out: aqueous solubility simulated intestinal fluid.
Setting [9] is: kinetic from dmso stock, simulated gastric fluid pH 2, tested at 200 μM, read-out: aqueous solubility simulated gastric fluid.

T1 sequence (P23975 whole entry): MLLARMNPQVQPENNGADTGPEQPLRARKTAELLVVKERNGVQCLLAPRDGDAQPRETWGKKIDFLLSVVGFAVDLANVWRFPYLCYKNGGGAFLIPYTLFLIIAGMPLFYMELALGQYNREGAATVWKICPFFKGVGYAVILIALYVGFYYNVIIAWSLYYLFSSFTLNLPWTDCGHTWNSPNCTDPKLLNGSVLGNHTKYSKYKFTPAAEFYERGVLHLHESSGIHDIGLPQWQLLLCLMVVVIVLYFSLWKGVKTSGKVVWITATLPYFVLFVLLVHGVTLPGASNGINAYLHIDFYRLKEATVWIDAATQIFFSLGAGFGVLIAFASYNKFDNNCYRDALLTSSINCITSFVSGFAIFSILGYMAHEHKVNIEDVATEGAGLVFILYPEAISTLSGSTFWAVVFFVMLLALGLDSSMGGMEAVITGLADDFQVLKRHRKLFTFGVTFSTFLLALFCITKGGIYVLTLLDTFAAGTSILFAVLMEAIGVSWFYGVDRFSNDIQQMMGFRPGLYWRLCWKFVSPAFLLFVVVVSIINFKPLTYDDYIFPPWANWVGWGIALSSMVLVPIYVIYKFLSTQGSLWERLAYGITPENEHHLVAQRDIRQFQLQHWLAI
Chain of NMDAR (1A/2B) (Q13224 27-1484, other chains not shown): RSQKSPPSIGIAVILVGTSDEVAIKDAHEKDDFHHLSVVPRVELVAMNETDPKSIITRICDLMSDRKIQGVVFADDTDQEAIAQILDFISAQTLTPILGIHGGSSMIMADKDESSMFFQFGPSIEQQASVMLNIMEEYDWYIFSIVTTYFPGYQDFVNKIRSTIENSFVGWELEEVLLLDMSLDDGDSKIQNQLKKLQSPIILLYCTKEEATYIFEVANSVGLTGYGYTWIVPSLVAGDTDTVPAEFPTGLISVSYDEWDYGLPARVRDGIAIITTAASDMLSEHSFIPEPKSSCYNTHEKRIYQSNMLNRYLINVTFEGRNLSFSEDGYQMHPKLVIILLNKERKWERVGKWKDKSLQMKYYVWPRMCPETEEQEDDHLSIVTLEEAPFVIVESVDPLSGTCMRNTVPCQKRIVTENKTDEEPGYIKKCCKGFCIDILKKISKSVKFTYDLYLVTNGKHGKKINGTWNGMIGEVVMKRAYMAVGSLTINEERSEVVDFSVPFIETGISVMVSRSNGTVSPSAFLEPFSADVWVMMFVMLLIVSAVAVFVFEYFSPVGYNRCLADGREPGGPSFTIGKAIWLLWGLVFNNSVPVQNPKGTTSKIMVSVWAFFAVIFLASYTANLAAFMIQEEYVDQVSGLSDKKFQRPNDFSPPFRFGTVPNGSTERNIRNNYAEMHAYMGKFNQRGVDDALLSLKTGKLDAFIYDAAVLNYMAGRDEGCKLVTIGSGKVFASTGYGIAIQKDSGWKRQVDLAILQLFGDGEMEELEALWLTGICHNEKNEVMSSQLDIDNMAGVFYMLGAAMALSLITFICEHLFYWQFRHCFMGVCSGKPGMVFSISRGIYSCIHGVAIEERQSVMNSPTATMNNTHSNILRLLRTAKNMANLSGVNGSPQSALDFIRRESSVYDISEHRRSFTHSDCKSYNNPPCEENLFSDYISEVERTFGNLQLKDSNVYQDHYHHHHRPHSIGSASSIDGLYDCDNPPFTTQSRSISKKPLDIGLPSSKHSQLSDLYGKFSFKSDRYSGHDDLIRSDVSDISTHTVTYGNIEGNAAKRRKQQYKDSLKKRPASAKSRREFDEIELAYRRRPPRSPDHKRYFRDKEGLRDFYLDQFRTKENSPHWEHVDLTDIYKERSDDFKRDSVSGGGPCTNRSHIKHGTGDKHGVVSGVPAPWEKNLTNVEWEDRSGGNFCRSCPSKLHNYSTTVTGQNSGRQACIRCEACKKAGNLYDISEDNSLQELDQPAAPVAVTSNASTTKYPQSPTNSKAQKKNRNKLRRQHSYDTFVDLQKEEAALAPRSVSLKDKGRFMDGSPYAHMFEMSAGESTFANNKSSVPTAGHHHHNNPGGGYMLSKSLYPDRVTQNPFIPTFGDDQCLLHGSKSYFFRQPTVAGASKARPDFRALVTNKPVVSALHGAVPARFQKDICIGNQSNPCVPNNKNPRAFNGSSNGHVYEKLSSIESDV
Chain of ADRB2 (P07550 whole entry): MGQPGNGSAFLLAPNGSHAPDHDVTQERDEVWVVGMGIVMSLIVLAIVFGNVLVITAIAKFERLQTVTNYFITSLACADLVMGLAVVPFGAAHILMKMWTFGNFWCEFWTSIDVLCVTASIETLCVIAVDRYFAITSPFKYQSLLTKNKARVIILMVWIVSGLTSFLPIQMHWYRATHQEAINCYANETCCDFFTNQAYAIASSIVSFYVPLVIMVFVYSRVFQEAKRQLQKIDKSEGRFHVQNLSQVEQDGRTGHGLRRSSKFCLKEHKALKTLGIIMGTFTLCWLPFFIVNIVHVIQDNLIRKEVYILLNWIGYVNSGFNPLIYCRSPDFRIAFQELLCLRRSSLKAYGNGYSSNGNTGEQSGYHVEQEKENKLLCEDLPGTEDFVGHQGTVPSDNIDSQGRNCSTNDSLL
Chain of HTR2B (P41595 whole entry): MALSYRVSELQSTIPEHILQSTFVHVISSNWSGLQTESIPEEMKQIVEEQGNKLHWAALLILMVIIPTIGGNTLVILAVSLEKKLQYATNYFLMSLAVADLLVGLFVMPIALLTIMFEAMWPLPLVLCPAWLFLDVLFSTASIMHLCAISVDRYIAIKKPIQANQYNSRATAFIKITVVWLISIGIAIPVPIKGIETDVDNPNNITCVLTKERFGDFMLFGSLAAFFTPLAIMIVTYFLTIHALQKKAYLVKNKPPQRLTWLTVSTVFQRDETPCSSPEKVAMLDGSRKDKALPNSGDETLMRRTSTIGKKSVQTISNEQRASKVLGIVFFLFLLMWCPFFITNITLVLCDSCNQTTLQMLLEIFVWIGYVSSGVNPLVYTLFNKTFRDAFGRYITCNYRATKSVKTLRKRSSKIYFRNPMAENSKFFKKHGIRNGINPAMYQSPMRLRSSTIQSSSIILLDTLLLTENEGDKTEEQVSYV

For orientation: pIC50 means the negative decadic logarithm of the IC50, by convention in mol/L. Usually pEC50 stands for the EC50 on a negative log10 scale, so that one unit is a factor of ten. The term solubility denotes how much of the substance goes into solution per volume. Consider `CC(C)(C)c1ccc(C#CC(O)c2ccccc2)cc1` (racemic) [Compound 3.3, rac-3-(4-(tert-butyl)phenyl)-1-phenylprop-2-yn-1-ol], for which the negative-log IC50 (pIC50) in data set [1], in data set [3] and in data set [6] was less than 5.00 in each case. Further, the Emax came out at 0% in data set [1]; 0% in data set [2]; 4.4% in data set [3]; 0% in data set [5]; 0% in data set [6]. The negative-log EC50 (pEC50) in data set [2] and in data set [5] was less than 5.00 in each case. Also, the solubility at 24 h was 17.7 µM (≈ 4.68 µg/mL) in data set [4] (setting [7]), 102 µM (≈ 27.1 µg/mL) in data set [4] (setting [8]) and 24.5 µM (≈ 6.48 µg/mL) in data set [4] (setting [9]).
For `Clc1cccc(C#Cc2n[nH]c3ncccc23)c1` [Compound 10.1, 3-((3-chlorophenyl)ethynyl)-1H-pyrazolo[3,4-b]pyridine], the negative-log IC50 (pIC50) in data set [1] was less than 5.00; in data set [3] (Enzymatic MAOA Inhibitor, read-out: RC50, result type IC50), less than 5.00; in data set [6] (cAMP ADRB2 Antagonist, read-out: RC50, result type IC50) it was less than 5.00. Besides, the Emax amounted to 13.6% in data set [1]; 0% in data set [2]; 12.4% in data set [3] (Enzymatic MAOA Inhibitor); 0% in data set [5]; 39.9% in data set [6] (cAMP ADRB2 Antagonist). For the same compound, the negative-log EC50 (pEC50) in data set [2] and in data set [5] was less than 5.00 each time. The solubility at 24 h in data set [4] (PBS pH 7.4, tested at 200 μM, 24 h room temperature, read-out: aqueous solubility PBS (pH 7.4)) is less than 0.1 µM; in data set [4] (setting [7]), less than 0.1 µM; in data set [4] (setting [8]), 26.7 µM (≈ 6.77 µg/mL); in data set [4] (setting [9]) it was 26.7 µM (≈ 6.77 µg/mL).

The values above are taken from patent US20250186408A1, “TREATMENT OF PHARMACORESISTANT EPILEPSY” (Katholieke Universiteit Leuven, priority 2021, published 2025).
